What follows are molecules tested against Recombinant human c-Src (Homo sapiens (Human), UniProt P12931) (assay: Src kinase inhibition in vitro (luciferase-based residual ATP, KinaseGlo)). Settings: ATP 3 μM, PTK2 substrate, 90 minutes at room temperature.
Assay type: biochemical
Method: The ability of compounds of the present invention to inhibit the activity of three groups of kinases was tested. Kinases tested included the src family (primarily src and yes), some angiogenic growth factor receptors (Fgfr1, Vegfr, and Pdgfrβ) and the ephrin, EphB4. All kinase reactions were conducted in 96-well plates with a final reaction volume of 50 ul.
After reacting for about 90 minutes at room temperature, residual ATP was determined using a luciferase-based assay (KinaseGlo, Promega Corp.) as a measure of kinase activity. Data from four wells were then averaged and used to determine IC50 values for the test compounds (Prism software package, GraphPad Software, San Diego Calif.).
The test results for inhibition of Src kinase are presented in Table 1, and the test results for inhibition of some other kinases (i.e., Yes, EphB4, and Pdgfrβ) are presented in Table 2.

Chain of Recombinant human c-Src (P12931 whole entry, looked up): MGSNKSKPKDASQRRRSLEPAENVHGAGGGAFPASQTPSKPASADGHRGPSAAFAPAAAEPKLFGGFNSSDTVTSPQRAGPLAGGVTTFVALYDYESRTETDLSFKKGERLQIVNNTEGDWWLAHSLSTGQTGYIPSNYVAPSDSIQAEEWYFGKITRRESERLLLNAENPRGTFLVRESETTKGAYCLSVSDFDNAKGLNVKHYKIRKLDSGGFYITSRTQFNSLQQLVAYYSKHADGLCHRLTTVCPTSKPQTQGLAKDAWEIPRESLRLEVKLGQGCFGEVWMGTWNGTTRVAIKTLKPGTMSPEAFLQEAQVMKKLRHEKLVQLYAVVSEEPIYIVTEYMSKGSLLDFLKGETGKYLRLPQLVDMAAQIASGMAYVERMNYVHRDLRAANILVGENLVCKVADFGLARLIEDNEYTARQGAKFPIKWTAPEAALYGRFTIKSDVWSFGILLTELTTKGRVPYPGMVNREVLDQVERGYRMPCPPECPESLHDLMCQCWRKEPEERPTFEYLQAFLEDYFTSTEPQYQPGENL

IC50	SMILES
25.2 nM	Cc1ccc(C#N)cc1-c1cc(C)c2nc(Nc3ccc(S(=O)(=O)NCCN4CCCC4)cc3)nnc2c1
244 nM	Cc1cccc(C)c1-c1cc(C)c2nc(Nc3ccc(N(C)C)cc3)nnc2c1
315 nM	Cc1cc2nc(Nc3ccc(S(=O)(=O)NCCN4CCCC4)cc3)nnc2cc1-c1ccccc1 [4-(6-methyl-7-phenyl-benzo[1,2,4]triazin-3-ylamino)-N-(2-pyrrolidin-1-yl-ethyl)-benzenesulfonamide]
12.6 nM	Cc1cc(-c2c(O)cccc2Cl)cc2nnc(Nc3ccc(S(=O)(=O)NCCN4CCCC4)cc3)nc12 [4-(7-(2-chloro-6-hydroxyphenyl)-5-methylbenzo[e][1,2,4]triazin-3-ylamino)-N-(2-(pyrrolidin-1-yl)ethyl)benzensulfonamide]
631 nM	CNc1cccc(-c2cc(C)c3nc(Nc4ccc(S(=O)(=O)NCCN5CCCC5)cc4)nnc3c2)c1 [4-[5-methyl-7-(3-methylamino-phenyl)-benzo[1,2,4]triazin-3-ylamino]-N-(2-pyrrolidin-1-yl-ethyl)-benzenesulfonamide]
66.5 nM	Cc1cc2nc(Nc3ccc(S(=O)(=O)NCCN4CCCC4)cc3)nnc2cc1-c1ccccc1C(F)(F)F [4-[6-methyl-7-(2-trifluoromethyl-phenyl)-benzo[1,2,4]triazin-3-ylamino]-N-(2-pyrrolidin-1-yl-ethyl)-benzenesulfonamide]
14 nM	Cc1cc(-c2c(Cl)cccc2Cl)cc2nnc(Nc3ccc(S(=O)(=O)NCCN4CCCC4)cc3)nc12 [4-[7-(2,6-dichloro-phenyl)-5-methyl-benzo[1,2,4]triazin-3-ylamino]-N-(2-pyrrolidin-1-yl-ethyl)-benzenesulfonamide]
72.2 nM	Cc1cc2nc(Nc3ccc(S(=O)(=O)NCCN4CCCC4)cc3)nnc2cc1-c1ccccc1CO [4-[7-(2-Hydroxymethyl-phenyl)-6-methyl-benzo[1,2,4]triazin-3-ylamino]-N-(2-pyrrolidin-1-yl-ethyl)-benzenesulfonamide]
282 nM	Cc1cc(-c2cccc(N)c2)cc2nnc(Nc3ccc(S(=O)(=O)NCCN4CCCC4)cc3)nc12 [4-[7-(3-amino-phenyl)-5-methyl-benzo[1,2,4]triazin-3-ylamino]-N-(2-pyrrolidin-1-yl-ethyl)-benzenesulfonamide]
2900 nM	Cc1cc(-c2cccc(NS(C)(=O)=O)c2)cc2nnc(Nc3ccc(S(=O)(=O)NCCN4CCCC4)cc3)nc12 [4-[7-(3-methanesulfonylamino-phenyl)-5-methyl-benzo[1,2,4]triazin-3-ylamino]-N-(2-pyrrolidin-1-yl-ethyl)-benzenesulfonamide]
12.3 nM	Cc1ccc(C#N)cc1-c1cc2nnc(Nc3ccc(S(=O)(=O)NCCN4CCCC4)cc3)nc2cc1C [4-[7-(5-Cyano-2-methyl-phenyl)-6-methyl-benzo[1,2,4]triazin-3-ylamino]-N-(2-pyrrolidin-1-yl-ethyl)-benzenesulfonamide]
51 nM	Cc1cc(-c2cc(N)ccc2Cl)cc2nnc(Nc3ccc(S(=O)(=O)NCCN4CCCC4)cc3)nc12 [4-[7-(5-amino-2-chloro-phenyl)-5-methyl-benzo[1,2,4]triazin-3-ylamino]-N-(2-pyrrolidin-1-yl-ethyl)-benzenesulfonamide]
9.7 nM	Cc1cccc(C)c1-c1cc(N)c2nc(Nc3ccc(OCCN4CCCC4)cc3)nnc2c1 [7-(2,6-dimethyl-phenyl)-N3-[4-(2-pyrrolidin-1-yl-ethoxy)-phenyl]-benzo[1,2,4]triazine-3,5-diamine]
10.6 nM	CNc1cc(-c2c(C)cccc2C)cc2nnc(Nc3ccc(OCCN4CCCC4)cc3)nc12 [7-(2,6-dimethyl-phenyl)-N5-methyl-N3-[4-(2-pyrrolidin-1-yl-ethoxy)-phenyl]-benzo[1,2,4]triazine-3,5-diamine]
> 10000 nM	Cc1cccc(Nc2nnc3cc(-c4c(C)cccc4C)cc(C)c3n2)c1C [(2,3-dimethyl-phenyl)-[7-(2,6-dimethyl-phenyl)-5-methyl-benzo[1,2,4]triazin-3-yl]-amine]

Source: patent US8481536B2, “Benzotriazine inhibitors of kinases” (TargeGen, Inc., priority 2004, dated 2013)
